For the assay, the target named is T1, BRD4 (Homo sapiens, UniProt O60885).
T1 construct: effectively degrading additional endogenous bromodomain‐containing protein 4 (BRD4) in cancer cells; endogenous in cells; host or cells: MOLT-4
The assay is described as follows: BRD4 degradation by western blot in MOLT-4 cells. The settings on record: 48 h. It counts as cell-based. From the text:
To expand beyond the GPX4 degradation, we next sought to investigate the potential of the HSP70 complex to facilitate the degradation of additional proteins. We selected oncoprotein bromodomain containing 4 (BRD4), a degradable protein that not only has been widely used as a model substrate for development of new technologies in the TPD field, but also serves as a validated therapeutic target for multiple cancers. We synthesized three heterobifunctional compounds (GDAz‐15–17) by conjugating the HSP70 binding moiety apoptozole to the well‐established BRD4 inhibitor (+)‐JQ‐1 (a potent, specific, and reversible BRD4 inhibitor extensively applied in TPD) via PEG linkers of varying lengths (Figure 8E; Scheme S6, Supporting Information). T lymphoblast MOLT‐4 cell line with BRD4 overexpression was selected for biological evaluation.
Cells were seeded at a density of 4 × 10^5 cells well^−1 in 6‐well plates and allowed to incubate overnight. Cells were incubated with the indicated treatments. Thereafter, the cells were collected and lysed with RIPA buffer containing serine protease and phosphatase inhibitors for 30 min on ice. Proteins were quantified by using a BCA protein assay kit (Beyotime). Subsequently, SDS‐PAGE sample loading buffer was added, and the mixture was heated in a 100 °C metal bath for 10 min to denature the proteins. Protein samples from each group were separated by SDS‐PAGE gel and transferred to a PVDF membrane. After blocking with 5% skim milk for 1 h at room temperature, primary antibodies (GPX4: abcam (#ab125066, 1:1000); Hsp70: abcam (#ab2787, 1:1000); CHIP: HUABIO (#ST7108, 1:1000); UpingBio Technology Co., Ltd. (BRD4, #YP‐Ab‐18034, 1:1000; BAG‐1, #YP‐Ab‐00575, 1:1000); GAPDH: Proteintech (#60004‐1‐Ig, 1:50 000)) were used and incubated at 4 °C overnight on a rotary shaker. […] Ultimately, the membrane was washed five times, and the antibody‐protein complexes were visualized using an ECL luminescence reagent (Biosharp, Shanghai, China). The relative intensities of the bands were analyzed by ImageJ and normalized to a loading control.
A general note: In western blotting, separated proteins are transferred to a membrane and probed.

Regarding `COc1ccc(-c2nc(-c3cc(C(F)(F)F)cc(C(F)(F)F)c3)n(Cc3ccc(C(=O)NCCOCCOCCOCCOCCNC(=O)C[C@@H]4N=C(c5ccc(Cl)cc5)c5c(sc(C)c5C)-n5c(C)nnc54)cc3)c2-c2ccc(OC)cc2)cc1` [GDAz-17, (S)-4-((2-(3,5-bis(trifluoromethyl)phenyl)-4,5-bis(4-methoxyphenyl)-1H-imidazol-1-yl)methyl)-N-(1-(4-(4-chlorophenyl)-2,3,9-trimethyl-6H-thieno[3,2-f][1,2,4]triazolo[4,3-a][1,4]diazepin-6-yl)-2-oxo-6,9,12,15-tetraoxa-3-azaheptadecan-17-yl)benzamide], the BRD4 degradation result is listed as “effectively trigger BRD4 degradation”.

The values are drawn from article PMC12948223, “HSP70 Interactome‐Mediated Proteolysis Targeting Chimera (HSP70‐PROTAC) for Ferroptosis‐Driven Cancer Treatment” (Advanced Science, 2025).
